Values of other authors as cited in patent publication US20040197905A1, “Methods and devices for monitoring cellular metabolism in microfluidic cell-retaining chambers” (Thermogenic Imagining, priority 2003, published 2004).
Read-outs that look alike come from different tables or passages of the source.

**Q.** For carboxy SNARF-1, which pKa (at 37° C.) is on record?
**A.** The pKa was 7.3-7.4.

**Q.** And the pKa (at room temperature)?
**A.** Its pKa is “about 7.5”.
